{
  "source": "patent US20260131010A1",
  "about": "“MENIN PROTEOLYSIS TARGETING CHIMERAS (PROTACS)” (Board of Regents, The University of Texas System, priority 2022, published 2026)",
  "origin": "cited, not measured here",
  "tested_on": "MLL leukemias",
  "conditions": "Borkin, et al. Cancer Cell 2015, 27(4) 589-602",
  "data": [
    {"molecule": "Cc1c(CN2CCC(Nc3ncnc4sc(CC(F)(F)F)cc34)CC2)ccc2c1cc(C#N)n2Cc1cn[nH]c1", "note": "[MI-503]", "values": [
      {"measurement": "efficacy in mouse models of MLL leukemias", "result": "effective"}
    ]}
  ]
}
